Reference: patent US12466816B2, “Fused cyclic compound capable of degrading protein and use thereof” (Medshine Discovery Inc., priority 2019, dated 2025)

Tested on: MM.1S cells
Assay: Sensitivity of MM.1S versus low-CRBN-expression MM.1S-p5000 cells to WX106 (CCK-8)
Assay type: cell-based
Conditions: 10 μM, 72 h, MM.1S-p5000 versus MM.1S
Experimental: WX106 (10 μM) was added to MM.1S cells and MM.1S-p5000 (Poma-resistant low-CRBN-expression cell line) cells, respectively, and cell proliferation was detected by CCK-8 after 72 h.

Cc1ccc(C(=O)Nc2ccc3occ(C4CCC(=O)NC4=O)c3c2)cc1Cl (stereo not shown) [WX106]
sensitivity of cells to WX106 with low CRBN expression: significantly less sensitive
